Test results taken from ChEMBL document CHEMBL1127135, “Synthesis and biological properties of 3-[()-2-(1,2,3-Thiadiazolyl)ethenyl]-substituted cephalosporins and related compounds: new oral cephalosporins” (Bioorg Med Chem Lett, 1993).
In brackets after ≈: the same amount, converted by molar mass.

How the values were obtained:
[1] = system: Enterococcus hirae; assay: Antibacterial activity against Enterococcus hirae ATCC 8043 was determined; assay type: functional
[2] = system: Escherichia coli; assay: Antibacterial activity against Escherichia coli ATCC 25922 was determined; assay type: functional
[3] = system: Escherichia coli; assay: Antibacterial activity against Escherichia coli NIHJ JC-2 was determined; assay type: functional
[4] = system: Enterobacter cloacae; assay: Antibacterial activity against Enterobacter cloacae 963 was determined; assay type: functional
[5] = system: Klebsiella aerogenes; assay: Antibacterial activity against Enterobacter aerogenes IFO 13048 was determined; assay type: functional
[6] = system: Klebsiella pneumoniae; assay: Antibacterial activity against Klebsiella pneumoniae IFO 3317 was determined; assay type: functional
[7] = system: Moraxella catarrhalis; assay: Antibacterial activity against M(B). catarrhalis ATCC 25238 was determined; assay type: functional
[8] = system: Micrococcus luteus; assay: Antibacterial activity against Micrococcus luteus ATCC 9341 was determined; assay type: functional
[9] = system: Morganella morganii; assay: Antibacterial activity against Morganella morganii IID 602 was determined; assay type: functional
[10] = system: Proteus vulgaris; assay: Antibacterial activity against Proteus vulgaris HX-19 was determined; assay type: functional
[11] = system: Proteus mirabilis; assay: Antibacterial activity against Proteus mirabilis IFO3849 was determined; assay type: functional
[12] = system: Pseudomonas aeruginosa; assay: Antibacterial activity against Pseudomonas aeruginosa NCTC 10490 was determined; assay type: functional
[13] = system: Providencia rettgeri; assay: Antibacterial activity against Providencia rettgeri IFO3850 was determined; assay type: functional
[14] = system: Staphylococcus aureus; assay: Antibacterial activity against Staphylococcus aureus 209P-JC was determined; assay type: functional
[15] = system: Staphylococcus aureus; assay: Antibacterial activity against Staphylococcus aureus ATCC 25923 was determined; assay type: functional
[16] = system: Serratia marcescens; assay: Antibacterial activity against Serratia marcescens IID 618 was determined; assay type: functional
[17] = system: Staphylococcus epidermidis; assay: Antibacterial activity against Staphylococcus epidermidis IID 866 was determined; assay type: functional
[18] = system: Staphylococcus aureus; assay: Antibacterial activity against Staphylococcus aureus Smith was determined; assay type: functional
[19] = Evaluated for pharmacokinetic parameter urine recovery in rat at the dose 50 mg/kg (0-24 hr); assay type: ADME, organism-based; set-up: dose 50 mg/kg; details: read-out: UR
[20] = Evaluated for pharmacokinetic parameter urine recovery in mouse at the dose 20 mg/kg (0-24 hr); assay type: ADME, organism-based; set-up: dose 20 mg/kg; details: read-out: UR
[21] = Evaluated for pharmacokinetic parameter tmax in mouse at the dose 20 mg/kg was determined; assay type: ADME, organism-based; set-up: dose 20 mg/kg; details: in vivo
[22] = Evaluated for pharmacokinetic parameter half-life in mouse at the dose 20 mg/kg; assay type: ADME, organism-based; set-up: dose 20 mg/kg; details: in vivo
[23] = Evaluated for pharmacokinetic parameter half-life in rat at the dose 50 mg/kg; assay type: ADME, organism-based; set-up: dose 50 mg/kg; details: in vivo
[24] = Evaluated for pharmacokinetic parameter area under curve in mouse at the dose 20 mg/kg (0-4 hr ); assay type: ADME, organism-based; set-up: time < 4 hr, dose 20 mg/kg; details: in vivo
[25] = Evaluated for pharmacokinetic parameter Cmax in mouse at the dose 20 mg/kg; assay type: ADME, organism-based; set-up: dose 20 mg/kg; details: in vivo
[26] = Evaluated for pharmacokinetic parameter tmax in rabbit at the dose 20 mg/kg; assay type: ADME, organism-based, Oryctolagus cuniculus; set-up: dose 20 mg/kg; details: in vivo
[27] = Evaluated for pharmacokinetic parameter urine recovery in rabbit at the dose 20 mg/kg (0-24 hr); assay type: ADME, organism-based, Oryctolagus cuniculus; set-up: dose 20 mg/kg; details: read-out: UR
[28] = Evaluated for pharmacokinetic parameter half-life in rabbit at the dose 20 mg/kg; assay type: ADME, organism-based, Oryctolagus cuniculus; set-up: dose 20 mg/kg; details: in vivo
[29] = Evaluated for pharmacokinetic parameter area under curve in rat at the dose 50 mg/kg (0-8 hr ); assay type: ADME, organism-based; set-up: time < 8 hr, dose 50 mg/kg; details: in vivo
[30] = Evaluated for pharmacokinetic parameter area under curve in rabbit at the dose 20 mg/kg (0-4 hr ); assay type: ADME, organism-based, Oryctolagus cuniculus; set-up: time < 4 hr, dose 20 mg/kg; details: in vivo
[31] = Evaluated for pharmacokinetic parameter Cmax in rabbit at the dose 20 mg/kg; assay type: ADME, organism-based, Oryctolagus cuniculus; set-up: dose 20 mg/kg; details: in vivo
[32] = Evaluated for pharmacokinetic parameter Cmax in rat at the dose 50 mg/kg; assay type: ADME, organism-based; set-up: dose 50 mg/kg; details: in vivo
[33] = system: Haemophilus influenzae; assay: Antibacterial activity against Haemophilus influenzae ATCC 19418 was determined; assay type: functional
[34] = system: Morganella morganii; assay: Antibacterial activity against Morganella morganii IID 602; assay type: functional
[35] = system: Streptococcus pneumoniae; assay: Antibacterial activity against Streptococcus pneumoniae IID 553 was determined; assay type: functional
[36] = Evaluated for pharmacokinetic parameter tmax in rat at the dose 50 mg/kg; assay type: ADME, organism-based; set-up: dose 50 mg/kg; details: in vivo

MIC [1]	MIC [2]	MIC [3]	MIC [4]	MIC [5]	MIC [6]	MIC [7]	MIC [8]	MIC [9]	MIC [10]	MIC [11]	MIC [12]	MIC [13]	MIC [14]	MIC [15]	MIC [16]	MIC [17]	MIC [18]	Compound	further results
> 100 mg/L	0.39 mg/L (≈ 0.77 µM)	0.39 mg/L (≈ 0.77 µM)	0.78 mg/L (≈ 1.54 µM)	0.78 mg/L (≈ 1.54 µM)	0.025 mg/L (≈ 0.0493 µM)	≤ 0.006 mg/L	0.025 mg/L (≈ 0.0493 µM)	0.2 mg/L (≈ 0.395 µM)	≤ 0.006 mg/L	0.39 mg/L (≈ 0.77 µM)	12.5 mg/L (≈ 24.7 µM)	0.025 mg/L (≈ 0.0493 µM)	0.78 mg/L (≈ 1.54 µM)	0.78 mg/L (≈ 1.54 µM)	0.39 mg/L (≈ 0.77 µM)	0.39 mg/L (≈ 0.77 µM)	0.78 mg/L (≈ 1.54 µM)	CO/N=C(\C(=O)NC1C(=O)N2C(C(=O)O)=C(/C=C\c3scnc3C)CSC12)c1csc(N)n1 (stereo unspecified)	–
25 mg/L (≈ 50.7 µM)	0.2 mg/L (≈ 0.405 µM)	0.39 mg/L (≈ 0.79 µM)	0.39 mg/L (≈ 0.79 µM)	0.78 mg/L (≈ 1.58 µM)	0.025 mg/L (≈ 0.0507 µM)	0.05 mg/L (≈ 0.101 µM)	0.025 mg/L (≈ 0.0507 µM)	0.05 mg/L (≈ 0.101 µM)	0.05 mg/L (≈ 0.101 µM)	0.39 mg/L (≈ 0.79 µM)	> 100 mg/L	≤ 0.006 mg/L	0.2 mg/L (≈ 0.405 µM)	0.39 mg/L (≈ 0.79 µM)	0.78 mg/L (≈ 1.58 µM)	0.39 mg/L (≈ 0.79 µM)	0.2 mg/L (≈ 0.405 µM)	Cc1snnc1/C=C\C1=C(C(=O)O)N2C(=O)C(NC(=O)/C(=N\O)c3csc(N)n3)C2SC1 (stereo unspecified)	–
12.5 mg/L (≈ 26.1 µM)	0.1 mg/L (≈ 0.209 µM)	0.1 mg/L (≈ 0.209 µM)	0.2 mg/L (≈ 0.417 µM)	0.2 mg/L (≈ 0.417 µM)	0.012 mg/L (≈ 0.025 µM)	0.05 mg/L (≈ 0.104 µM)	0.012 mg/L (≈ 0.025 µM)	–	0.05 mg/L (≈ 0.104 µM)	0.05 mg/L (≈ 0.104 µM)	> 100 mg/L	≤ 0.006 mg/L	0.1 mg/L (≈ 0.209 µM)	0.39 mg/L (≈ 0.813 µM)	0.39 mg/L (≈ 0.813 µM)	0.05 mg/L (≈ 0.104 µM)	0.1 mg/L (≈ 0.209 µM)	Nc1nc(/C(=N/O)C(=O)NC2C(=O)N3C(C(=O)O)=C(/C=C\c4csnn4)CSC23)cs1 (stereo unspecified)	dose excreted [19]: 3.5%; dose excreted [20]: 1.9%; Tmax [21]: 2 h; half-life [22]: 0.7 h; half-life [23]: 4.4 h; AUC at 4 h [24]: 4.7 µg·h/mL; Cmax [25]: 1.5 µg/mL; Tmax [26]: 2 h; dose excreted [27]: 17.4%; half-life [28]: 2.2 h; AUC at 8 h [29]: 19.8 µg·h/mL; AUC at 4 h [30]: 9.7 µg·h/mL; Cmax [31]: 2 µg/mL; Cmax [32]: 6 µg/mL; MIC [33]: 0.05 mg/L (≈ 0.104 µM); MIC [34]: 0.025 mg/L (≈ 0.0521 µM); MIC [35]: 0.05 mg/L (≈ 0.104 µM); Tmax [36]: 2 h
